The target in this experiment is T1, human GPR84 receptor (Homo sapiens, UniProt Q9NQS5).
T1 construct: host or cells: HEK293, transiently transfected
The experiment in a line: Gαi biosensor BRET assay (GPR84 antagonism vs agonist ZQ-16). The class given is cell-based. To be noted: HEK293 cells, 200 nmol/L agonist ZQ-16; for IC50: Gαi biosensor BRET assay; for inhibition at 2 µM: tested at 2 μM (concentration code A); for inhibition at 10 µM: tested at 10 μM (concentration code D). The source says:
Background—The following assays can be used for determination of GPR84 activation in living HEK293 cells. The Gai BRET biosensor (Gagnon et al., 2018; Gales et al., 2006. Nat Struct Mol Biol. 13, 778-86; Saulieres et al., 2012. Nat Chem Biol. 8, 622-30) allows to directly monitor GPR84-mediated activation of Gai. The Gai biosensor consists of a Rluc8-tagged Gai2 subunit, a GFP10-tagged Gy2 subunit, and an untagged GB1. Agonist stimulation and GPR84 activation triggers a physical separation between the RLuc8-Gai donor and the GFP10-Gy2 acceptor, resulting in a decrease in BRET signal whose amplitude is correlated to ligand efficacy (Gales et al., 2006). Moreover, signaling functions of GPCRs are tightly regulated by endocytosis, the targeting of receptors to endosomes and their sorting to lysosomes or recycling to the plasma membrane. The early endosomes (EEs) trafficking assay (Namkung et al., 2016. Nat Commun. 7, 12178) uses Rluc8-tagged GPR84 and Renilla GFP (rGFP) attached to the FYVE domain from human endofin/zinc finger FYVE domain-containing protein 16, which binds phosphatidylinositol 3-phosphate in EEs. Agonist stimulation of GPR84-Rluc8 leads to trafficking of the receptor to EEs, and ensuing increase of the donor concentration relative to the rGFP-FYVE acceptor anchored in the same cellular compartment, and thus results in an increase in BRET signal.
Plasmids—The cDNA clones for human GPR84 receptor, human Gai2, GB1, and Gy2 were obtained from the cDNA Resource Center (www.cdna.org). GFP10 (F64L, S147P, S202F and H231L variant of Aequorea victoria Green Fluorescent Protein) gBlocks gene fragments (Integrated DNA Technologies, IA) and linker were inserted in frame at the N-terminus of human Gy2. Rluc8 (A55T, C124A, S130A, K136R, A143M, M185V, M253L, and S287L variant of the Renilla reniformis luciferase) gBlocks gene fragment was inserted with linkers in frame in between residues 91 and 92 of Gai2 or at the C-terminus of GPR84. The FYVE domain from human endofin (residues Q739 to K806) attached in frame at the C terminus of a humanized Renilla GFP (rGFP), were synthesized as gBlocks gene fragments.
Bioluminescence Resonance Energy Transfer (BRET) Measurement-HEK293 cells were transfected with GPR84-Rluc8 and rGFP-FYVE for the EEs trafficking biosensor or with GPR84, Gai2-Rluc8, GFP10-Gy2, and GB1 for the Ga; biosensor. The following day, transiently transfected cells were seeded in 96-well white clear bottom microplates coated with poly-D-lysine and left in culture for 24 hours. Cells were washed once with Tyrode's buffer (140 mmol/L NaCl, 1 mmol/L CaCl2), 2.7 mmol/L KCl, 0.49 mmol/L MgCl2, 0.37 mmol/L NaH2PO4, 5.6 mmol/L glucose, 12 mmol/L NaHCO3, and 25 mmol/L HEPES, pH 7.5) before performing assays in Tyrode's buffer. Test compounds were incubated with cells for 5 (Gai) or 15 (EEs) minutes at 37° C. before addition of 200 nmol/L of the GPR84 agonist ZQ-16 (2-(Hexylthio)-6-hydroxy-4 (3H)-pyrimidinone) for 5 minutes at room temperature (Gai) or 30 minutes at 37° C. (EEs). The Rluc8 substrate coelenterazine 400A (Prolume, Lakeside, A Z) was added at a final concentration of 5 μmol/L and BRET readings were collected using an Infinite M1000 microplate reader (Tecan, Morrisville, N C). BRET2 readings between Rluc8 and GFP10 or rGFP were collected by sequential integration of the signals detected in the 370 to 450 nm (Rluc8) and 510 to 540 nm (GFP10, rGFP) windows. The BRET signal was calculated as the ratio of light emitted by acceptor (GFP10, rGFP) over the light emitted by donor (Rluc8). The values were corrected to net BRET by subtracting the background BRET signal obtained in cells transfected with Rluc8 constructs alone. Ligand-promoted net BRET values were calculated by subtracting vehicle-induced net BRET from ligand-induced net BRET.

T1 sequence (Q9NQS5 whole entry): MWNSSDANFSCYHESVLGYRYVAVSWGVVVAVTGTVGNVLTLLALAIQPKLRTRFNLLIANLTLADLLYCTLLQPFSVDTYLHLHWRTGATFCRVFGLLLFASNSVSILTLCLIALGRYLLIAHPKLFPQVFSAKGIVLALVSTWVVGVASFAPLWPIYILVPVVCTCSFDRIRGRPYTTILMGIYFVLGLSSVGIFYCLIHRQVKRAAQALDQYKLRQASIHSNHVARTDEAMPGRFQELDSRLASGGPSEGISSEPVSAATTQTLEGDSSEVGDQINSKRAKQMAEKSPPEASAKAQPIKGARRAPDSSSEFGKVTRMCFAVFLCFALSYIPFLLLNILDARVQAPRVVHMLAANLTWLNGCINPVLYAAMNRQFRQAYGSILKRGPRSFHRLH

For orientation: IC50 means the point on the concentration scale where inhibition reaches its midpoint. Low values mean greater potency, high ones weaker potency. Broadly, the inhibition is how much of the control response was suppressed. A low value points to a weak effect. The compound `Cc1cc(OCc2ncc(NS(C)(=O)=O)cn2)cc(=O)n1[C@H](C)c1ccc(C#CC2CC2)cc1` [Compound I-11] yielded an IC50 not above 300 nM and an inhibition at 2 µM of more than 75%.

In turn, `Cc1cc(OCC2COCCO2)cc(=O)n1[C@H](C)c1ccc(NC(=O)c2cnccn2)c(F)c1` (stereo partly drawn) [Compound I-9, N-(4-((1R)-1-(4-((1,4-dioxan-2-yl)methoxy)-6-methyl-2-oxopyridin-1 (2H)-yl)ethyl)-2-fluorophenyl) pyrazine-2-carboxamide] registered an inhibition at 10 µM of less than 25%.

Consider `Cc1cc(OCc2ncncc2Cl)cc(=O)n1[C@H](C)c1ccc(C#CC2CC2)cc1` [Compound I-15], for which the IC50 was not above 300 nM and the inhibition at 10 µM is more than 75%.

Compound `Cc1cc(OCC(=O)N2CC[C@@H](S(C)(=O)=O)C2)cc(=O)n1[C@H](C)c1ccc(C#CC2CC2)cc1` [Compound I-252] registered an IC50 not above 300 nM and an inhibition at 2 µM of more than 75%.

Compound `Cc1cc(OCC(=O)N2C[C@H](O)[C@@H](O)C2)cc(=O)n1[C@H](C)c1ccc(C#CC2CC2)cc1` [Compound I-314] returned an IC50 not above 300 nM and an inhibition at 2 µM of more than 75%.

The compound `Cc1cc(OCC(=O)N2CC(C)OC(C)C2)cc(=O)n1[C@H](C)c1ccc(C#CC2CC2)cc1` (some centres unmarked) [Compound I-348] displayed an inhibition at 10 µM of more than 75%.

For the compound `Cc1cc(OCC(=O)N2CC3C(C2)C3(C)C)cc(=O)n1[C@H](C)c1ccc(C#CC2CC2)cc1` (some centres unmarked) [Compound I-285], the IC50 fell in the range of 300 to 1000 nM and the inhibition at 10 µM was more than 75%.

`Cc1cc(/C=C2\SC(=O)NC2=O)cc(=O)n1[C@H](C)c1ccc(C#CC2CC2)cc1` [Compound I-339] came in with an inhibition at 10 µM of more than 75%.

The compound `Cc1cc(OCC(N(C)C)C(F)(F)F)cc(=O)n1[C@H](C)c1ccc(C#CC2CC2)c(F)c1` (some centres unmarked) [Compound I-85] gave an inhibition at 10 µM of 50 to 75%.

`Cc1cc(OCC(=O)NC2CC(F)(F)C2)cc(=O)n1[C@H](C)c1ccc(C#CC2CC2)cc1` [Compound I-51] gave an inhibition at 10 µM of 50 to 75%.

With `Cc1cc(OCc2ncccn2)cc(=O)n1[C@H](C)c1ccc(/C=C/C2CC2)cc1` [Compound I-149], the inhibition at 10 µM was less than 25%.

Compound `Cc1cc(OCC(=O)N2CCC(C)(C)C2)cc(=O)n1[C@H](C)c1ccc(C#CC2CC2)cc1` [Compound I-256] returned an inhibition at 2 µM of more than 75%.

On to `Cc1cc(OCC(=O)N2C[C@@H](O)[C@H](O)C2)cc(=O)n1[C@H](C)c1ccc(C#CC2CC2)cc1` [Compound I-315], for which the concentration for half-maximal inhibition (IC50) is not above 300 nM and the inhibition at 10 µM is more than 75%.

Consider `Cc1cc(OCC(=O)N2CC[C@@H](C(=O)O)C2)cc(=O)n1[C@H](C)c1ccc(C#CC2CC2)cc1` [Compound I-250], for which the IC50 is not above 300 nM and the inhibition at 2 µM is more than 75%.

For `Cc1cc(OCC(=O)N2CC[C@@H](S(=O)(=O)N(C)C)C2)cc(=O)n1[C@H](C)c1ccc(C#CC2CC2)cc1` [Compound I-334], the IC50 is 300 to 1000 nM and the inhibition at 2 µM was more than 75%.

As for `Cc1cc(OCC(=O)N2CC[C@@H](C3CC3)C2)cc(=O)n1[C@H](C)c1ccc(C#CC2CC2)cc1` [Compound I-311], the inhibition at 2 µM was more than 75%.

Compound `Cc1cc(OCC(=O)N2CCC(=O)C2)cc(=O)n1[C@H](C)c1ccc(C#CC2CC2)cc1` [Compound I-245] returned an IC50 not above 300 nM and an inhibition at 2 µM of more than 75%.

Turning to `Cc1cc(OCC(=O)N2CC3CCC2CO3)cc(=O)n1[C@H](C)c1ccc(C#CC2CC2)cc1` (some centres unmarked) [Compound I-327], the IC50 is 1000 to 3000 nM and the inhibition at 2 µM is more than 75%.

Compound `Cc1cc(OCS(N)(=O)=O)cc(=O)n1[C@H](C)c1ccc(C#CC2CC2)cc1` [Compound I-48] showed an inhibition at 10 µM of more than 75%.

For the compound `Cc1cc(OCC(=O)N2CC[C@H](C#N)C2)cc(=O)n1[C@H](C)c1ccc(C#CC2CC2)cc1` [Compound I-310], the IC50 was not above 300 nM and the inhibition at 2 µM is more than 75%.

With `Cc1cc(OCC(=O)N2CC[C@@H](N(C)S(C)(=O)=O)C2)cc(=O)n1[C@H](C)c1ccc(C#CC2CC2)cc1` [Compound I-338], the inhibition at 10 µM is more than 75%.

Regarding `Cc1cc(OCC(=O)N(C)C)cc(=O)n1[C@H](C)c1ccc(C#CC2CC2)c(C2CC2)c1` [Compound I-33], the inhibition at 10 µM is more than 75%.

In turn, `Cc1cc(OCC(=O)N2CC3(CCC3)C2)cc(=O)n1[C@H](C)c1ccc(C#CC2CC2)cc1` [Compound I-282] returned an IC50 not above 300 nM and an inhibition at 2 µM of more than 75%.

The compound `Cc1cc(OCC(=O)N2CCC[C@@H]2C(=O)O)cc(=O)n1[C@H](C)c1ccc(C#CC2CC2)cc1` [Compound I-246] registered an IC50 of 300 to 1000 nM and an inhibition at 10 µM of more than 75%.

Take `Cc1cc(OCC(=O)N(C)C)cc(=O)n1[C@H](C)c1ccc(C#CC2CC2)c(F)c1` [Compound I-14]: the IC50 is not above 300 nM and the inhibition at 2 µM is more than 75%.

As to `Cc1cc(OCC(=O)N(C)C)cc(=O)n1[C@H](C)c1ccc(C#CC2CC2)cc1Br` [Compound I-87], the inhibition at 10 µM lay within 50 to 75%.

`Cc1cc(OCC(=O)N2CC[C@H]2C(=O)O)cc(=O)n1[C@H](C)c1ccc(C#CC2CC2)cc1` [Compound I-301] displayed a 50% inhibitory concentration (IC50) of 1000 to 3000 nM and an inhibition at 10 µM of more than 75%.

The compound `Cc1cc(OCC(=O)N(C)C)cc(=O)n1C(C)c1ccnc(O)c1` (centres unmarked) [Compound I-231] gave an inhibition at 10 µM of less than 25%.

Compound `Cc1cc(OCC(=O)N(C)C)cc(=O)n1C(C)c1ccccn1` (centres unmarked) [Compound I-225] had an inhibition at 10 µM of less than 25%.

In turn, `COC1CN(C(=O)COc2cc(C)n([C@H](C)c3ccc(C#CC4CC4)cc3)c(=O)c2)C1` [Compound I-294] had a 50% inhibitory concentration (IC50) not above 300 nM and an inhibition at 2 µM of more than 75%.

Compound `Cc1cc(COCC(=O)N(C)C)cc(=O)n1[C@H](C)c1ccc(C#CC2CC2)cc1` [Compound I-340] gave an inhibition at 10 µM of 50 to 75%.

Compound `Cc1cc(OCC2(N(C)C)CC2)cc(=O)n1[C@H](C)c1ccc(C#CC2CC2)cc1` [Compound I-30] yielded an inhibition at 10 µM of 50 to 75%.

`Cc1cc(OCC(=O)N2CC[C@H](C(=O)O)C2)cc(=O)n1[C@H](C)c1ccc(C#CC2CC2)cc1` [Compound I-251] registered an IC50 not above 300 nM and an inhibition at 2 µM of more than 75%.

With `COc1cccc([C@H](C)n2c(C)cc(C#CC3CC3)cc2=O)c1` [Compound I-238], the inhibition at 2 µM is less than 25%.

In turn, `Cc1cc(OCC(=O)N(C)C)cc(=O)n1[C@H](C)c1ccc(C#CC2CC2)c(O)c1` [Compound I-72] yielded an IC50 of 300 to 1000 nM and an inhibition at 10 µM of more than 75%.

In turn, `Cc1cc(OCC(=O)N2C[C@@H](O)[C@@H](O)C2)cc(=O)n1[C@H](C)c1ccc(C#CC2CC2)cc1` [Compound I-316] returned an IC50 not above 300 nM and an inhibition at 2 µM of more than 75%.

On to `Cc1cc(OCC(O)C(C)(C)C)cc(=O)n1[C@H](C)c1ccc(C#CC2CC2)cc1` (some centres unmarked) [Compound I-276], for which the IC50 lay in the range of 300 to 1000 nM and the inhibition at 10 µM was more than 75%.

The compound `Cc1cc(OCc2ncccc2C(F)(F)F)cc(=O)n1[C@H](C)c1ccc(C#CC2CC2)cc1` [Compound I-71] gave an IC50 of 300 to 1000 nM and an inhibition at 10 µM of more than 75%.

The record behind these values is patent publication US20260055117A1, “SUBSTITUTED PYRIDONE GPR84 ANTAGONISTS AND USES THEREOF” (Liminal BioSciences Limited, priority 2022, published 2026).
